Results from paper PMC7490411 (Signal Transduction and Targeted Therapy, 2020).

Tests used:
[1] = tested on: NK cells co-seeded with Mino cells; assay: IFN-γ secretion ELISA, NK cells co-cultured with Mino cells in presence of Rituximab; format: cell-based, human; conditions: Mino co-culture; 0.1 to 3 μM
[2] = tested on: ABL1(Q252H)-nonphosphorylated; assay: KINOMEscan; format: binding; conditions: 1000 nM
[3] = tested on: ABL1(T315I)-nonphosphorylated; assay: KINOMEscan; format: binding; conditions: 1000 nM
ACVR1B = assay: KINOMEscan; format: binding; conditions: 1000 nM
ASK2 = assay: KINOMEscan; format: binding; conditions: 1000 nM
AURKB = assay: KINOMEscan; format: binding; conditions: 1000 nM
AURKC = assay: KINOMEscan; format: binding; conditions: 1000 nM
BLK = target: T1, BLK (Homo sapiens, UniProt P51451); assay: KINOMEscan; format: binding; conditions: 1000 nM
T1 construct: purchased Invitrogen (Carlsbad, CA, USA)
T1 sequence (P51451 whole entry): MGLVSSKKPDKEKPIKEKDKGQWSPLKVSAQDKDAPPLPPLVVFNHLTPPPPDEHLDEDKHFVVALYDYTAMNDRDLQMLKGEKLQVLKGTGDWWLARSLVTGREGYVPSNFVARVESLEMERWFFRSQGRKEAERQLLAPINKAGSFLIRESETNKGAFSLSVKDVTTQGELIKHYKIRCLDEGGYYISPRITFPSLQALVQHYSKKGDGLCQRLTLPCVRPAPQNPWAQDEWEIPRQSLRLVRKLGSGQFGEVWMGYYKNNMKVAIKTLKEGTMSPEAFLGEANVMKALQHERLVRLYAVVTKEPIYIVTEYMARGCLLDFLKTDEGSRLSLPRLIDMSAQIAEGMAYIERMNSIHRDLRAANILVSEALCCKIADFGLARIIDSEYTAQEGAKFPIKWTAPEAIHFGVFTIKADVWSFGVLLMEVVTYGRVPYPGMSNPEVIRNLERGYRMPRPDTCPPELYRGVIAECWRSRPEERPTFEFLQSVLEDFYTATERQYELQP

BTK = target: T2, BTK (Homo sapiens, UniProt Q06187); assay: KINOMEscan; format: binding; conditions: 1000 nM
T2 construct: purchased Invitrogen (Carlsbad, CA, USA)
T2 sequence (Q06187 whole entry): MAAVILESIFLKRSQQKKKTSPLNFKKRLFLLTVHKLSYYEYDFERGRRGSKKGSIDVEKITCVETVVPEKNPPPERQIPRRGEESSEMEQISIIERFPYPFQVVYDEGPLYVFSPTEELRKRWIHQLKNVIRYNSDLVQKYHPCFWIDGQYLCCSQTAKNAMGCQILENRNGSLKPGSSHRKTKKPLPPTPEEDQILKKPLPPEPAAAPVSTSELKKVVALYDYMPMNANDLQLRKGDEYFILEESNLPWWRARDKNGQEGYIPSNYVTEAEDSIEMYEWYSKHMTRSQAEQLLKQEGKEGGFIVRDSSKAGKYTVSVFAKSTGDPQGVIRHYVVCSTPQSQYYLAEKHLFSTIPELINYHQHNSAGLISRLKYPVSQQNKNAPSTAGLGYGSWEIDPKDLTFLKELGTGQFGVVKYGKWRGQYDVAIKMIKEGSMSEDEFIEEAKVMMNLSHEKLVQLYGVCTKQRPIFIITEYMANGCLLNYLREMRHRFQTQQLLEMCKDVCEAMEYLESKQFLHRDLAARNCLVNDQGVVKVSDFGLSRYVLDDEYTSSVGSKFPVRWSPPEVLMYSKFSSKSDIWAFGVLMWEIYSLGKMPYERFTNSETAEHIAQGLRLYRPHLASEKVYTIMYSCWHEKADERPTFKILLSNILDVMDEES

CIT = assay: KINOMEscan; format: binding; conditions: 1000 nM
CSNK1E = assay: KINOMEscan; format: binding; conditions: 1000 nM
EPHA1 = assay: KINOMEscan; format: binding; conditions: 1000 nM
EPHA8 = assay: KINOMEscan; format: binding; conditions: 1000 nM
ERK3 = assay: KINOMEscan; format: binding; conditions: 1000 nM
FLT3(D835H) = assay: KINOMEscan; format: binding; conditions: 1000 nM
FLT3(ITD) = assay: KINOMEscan; format: binding; conditions: 1000 nM
FLT3(ITD,F691L) = assay: KINOMEscan; format: binding; conditions: 1000 nM
GRK7 = assay: KINOMEscan; format: binding; conditions: 1000 nM
GSK3B = assay: KINOMEscan; format: binding; conditions: 1000 nM
INSRR = assay: KINOMEscan; format: binding; conditions: 1000 nM
IRAK3 = assay: KINOMEscan; format: binding; conditions: 1000 nM
[4] = tested on: JAK2(JH1domain-catalytic); assay: KINOMEscan; format: binding; conditions: 1000 nM
KIT(V559D) = assay: KINOMEscan; format: binding; conditions: 1000 nM
LIMK2 = assay: KINOMEscan; format: binding; conditions: 1000 nM
MAP3K3 = assay: KINOMEscan; format: binding; conditions: 1000 nM
MAPKAPK2 = assay: KINOMEscan; format: binding; conditions: 1000 nM
MEK1 = assay: KINOMEscan; format: binding; conditions: 1000 nM
MEK6 = assay: KINOMEscan; format: binding; conditions: 1000 nM
MINK = assay: KINOMEscan; format: binding; conditions: 1000 nM
MST2 = assay: KINOMEscan; format: binding; conditions: 1000 nM
MST3 = assay: KINOMEscan; format: binding; conditions: 1000 nM
MYLK2 = assay: KINOMEscan; format: binding; conditions: 1000 nM
MYLK4 = assay: KINOMEscan; format: binding; conditions: 1000 nM
MYO3B = assay: KINOMEscan; format: binding; conditions: 1000 nM
PIK3CA(H1047Y) = assay: KINOMEscan; format: binding; conditions: 1000 nM
PLK3 = assay: KINOMEscan; format: binding; conditions: 1000 nM
PRKCE = assay: KINOMEscan; format: binding; conditions: 1000 nM
PRKCQ = assay: KINOMEscan; format: binding; conditions: 1000 nM
PRKD1 = assay: KINOMEscan; format: binding; conditions: 1000 nM
PYK2 = assay: KINOMEscan; format: binding; conditions: 1000 nM
ROCK2 = assay: KINOMEscan; format: binding; conditions: 1000 nM
ROS1 = assay: KINOMEscan; format: binding; conditions: 1000 nM
[5] = tested on: RPS6KA5(Kin.Dom.2-C-terminal); assay: KINOMEscan; format: binding; conditions: 1000 nM
[6] = tested on: RSK1(Kin.Dom.2-C-terminal); assay: KINOMEscan; format: binding; conditions: 1000 nM
[7] = tested on: RSK4(Kin.Dom.1-N-terminal); assay: KINOMEscan; format: binding; conditions: 1000 nM
S6K1 = assay: KINOMEscan; format: binding; conditions: 1000 nM
STK39 = assay: KINOMEscan; format: binding; conditions: 1000 nM
TBK1 = assay: KINOMEscan; format: binding; conditions: 1000 nM
TRKA = assay: KINOMEscan; format: binding; conditions: 1000 nM
TRKC = assay: KINOMEscan; format: binding; conditions: 1000 nM
[8] = tested on: TYK2(JH2domain-pseudokinase); assay: KINOMEscan; format: binding; conditions: 1000 nM
VRK2 = assay: KINOMEscan; format: binding; conditions: 1000 nM
YANK3 = assay: KINOMEscan; format: binding; conditions: 1000 nM

`C=CC(=O)Nc1cc(Nc2cc(-c3cccc(NC(=O)c4cc5c(s4)CCCC5)c3C)cn(C)c2=O)ccc1N1CCN(CC)CC1` [CHMFL-BTK-85] was tested, and the “inhibition of Rituximab-induced IFN-γ secretion in NK cells” value [1] was “no apparent inhibition”, the “Percent Control” value [2] was 84% and the “Percent Control” value [3] was 94%. For the same compound, the “Percent Control” value (ACVR1B) was 95%, the “Percent Control” value (ASK2) was 100% and the “Percent Control” value (AURKB) was 100%. For the same compound, the “Percent Control” value (AURKC) was 100%, the percent of control kinase binding at 1 µM (BLK) was 57% and the percent of control binding at 1 µM (BTK) was 0.9%. For the same compound, the “Percent Control” value (CIT) was 95%, the “Percent Control” value (CSNK1E) was 95% and the “Percent Control” value (EPHA1) was 90%. The “Percent Control” value (EPHA8) was 91%, the “Percent Control” value (ERK3) was 100% and the “Percent Control” value (FLT3(D835H)) was 100%. For the same compound, the “Percent Control” value (FLT3(ITD)) was 99%, the “Percent Control” value (FLT3(ITD,F691L)) was 77% and the “Percent Control” value (GRK7) was 100%. For the same compound, the “Percent Control” value (GSK3B) was 100%, the “Percent Control” value (INSRR) was 90% and the “Percent Control” value (IRAK3) was 100%. For the same compound, the “Percent Control” value [4] was 100%, the “Percent Control” value (KIT(V559D)) was 79% and the “Percent Control” value (LIMK2) was 100%. The “Percent Control” value (MAP3K3) was 100%, the “Percent Control” value (MAPKAPK2) was 86% and the “Percent Control” value (MEK1) was 100%. For the same compound, the “Percent Control” value (MEK6) was 78%, the “Percent Control” value (MINK) was 88% and the “Percent Control” value (MST2) was 88%. For the same compound, the “Percent Control” value (MST3) was 66%, the “Percent Control” value (MYLK2) was 91% and the “Percent Control” value (MYLK4) was 94%. The “Percent Control” value (MYO3B) was 92%, the “Percent Control” value (PIK3CA(H1047Y)) was 83% and the “Percent Control” value (PLK3) was 99%. For the same compound, the “Percent Control” value (PRKCE) was 93%, the “Percent Control” value (PRKCQ) was 80% and the “Percent Control” value (PRKD1) was 100%. The “Percent Control” value (PYK2) was 100%, the “Percent Control” value (ROCK2) was 100% and the “Percent Control” value (ROS1) was 98%. For the same compound, the “Percent Control” value [5] was 66%, the “Percent Control” value [6] was 100% and the “Percent Control” value [7] was 100%. For the same compound, the “Percent Control” value (S6K1) was 100%, the “Percent Control” value (STK39) was 100% and the “Percent Control” value (TBK1) was 72%. For the same compound, the “Percent Control” value (TRKA) was 86%, the “Percent Control” value (TRKC) was 100% and the “Percent Control” value [8] was 100%. For the same compound, the “Percent Control” value (VRK2) was 94% and the “Percent Control” value (YANK3) was 89%.
